Results published in article PMC11168191, “Systemic Treatment with siRNA Targeting Gamma-Secretase Activating Protein Inhibits Amyloid-β Accumulation in Alzheimer’s Disease” (Biomaterials Research, 2024).
Read-outs that look alike come from different tables or passages of the source. Each block holds one molecule with its values, some of them ahead of it. Bridge positions count the residues as written; N and C are the ends. Ends that are not written are not given here. I, II: the chains in the order shown.

How the values were obtained:
[1] = target: T1, leptin receptor (Homo sapiens, UniProt P48357); test: SPR biosensor binding of peptide to immobilized leptin receptor; conditions: for kon: read-out: association constant (Ka)
T1 construct: purchased R&D Systems
T1 sequence (P48357 22-1165): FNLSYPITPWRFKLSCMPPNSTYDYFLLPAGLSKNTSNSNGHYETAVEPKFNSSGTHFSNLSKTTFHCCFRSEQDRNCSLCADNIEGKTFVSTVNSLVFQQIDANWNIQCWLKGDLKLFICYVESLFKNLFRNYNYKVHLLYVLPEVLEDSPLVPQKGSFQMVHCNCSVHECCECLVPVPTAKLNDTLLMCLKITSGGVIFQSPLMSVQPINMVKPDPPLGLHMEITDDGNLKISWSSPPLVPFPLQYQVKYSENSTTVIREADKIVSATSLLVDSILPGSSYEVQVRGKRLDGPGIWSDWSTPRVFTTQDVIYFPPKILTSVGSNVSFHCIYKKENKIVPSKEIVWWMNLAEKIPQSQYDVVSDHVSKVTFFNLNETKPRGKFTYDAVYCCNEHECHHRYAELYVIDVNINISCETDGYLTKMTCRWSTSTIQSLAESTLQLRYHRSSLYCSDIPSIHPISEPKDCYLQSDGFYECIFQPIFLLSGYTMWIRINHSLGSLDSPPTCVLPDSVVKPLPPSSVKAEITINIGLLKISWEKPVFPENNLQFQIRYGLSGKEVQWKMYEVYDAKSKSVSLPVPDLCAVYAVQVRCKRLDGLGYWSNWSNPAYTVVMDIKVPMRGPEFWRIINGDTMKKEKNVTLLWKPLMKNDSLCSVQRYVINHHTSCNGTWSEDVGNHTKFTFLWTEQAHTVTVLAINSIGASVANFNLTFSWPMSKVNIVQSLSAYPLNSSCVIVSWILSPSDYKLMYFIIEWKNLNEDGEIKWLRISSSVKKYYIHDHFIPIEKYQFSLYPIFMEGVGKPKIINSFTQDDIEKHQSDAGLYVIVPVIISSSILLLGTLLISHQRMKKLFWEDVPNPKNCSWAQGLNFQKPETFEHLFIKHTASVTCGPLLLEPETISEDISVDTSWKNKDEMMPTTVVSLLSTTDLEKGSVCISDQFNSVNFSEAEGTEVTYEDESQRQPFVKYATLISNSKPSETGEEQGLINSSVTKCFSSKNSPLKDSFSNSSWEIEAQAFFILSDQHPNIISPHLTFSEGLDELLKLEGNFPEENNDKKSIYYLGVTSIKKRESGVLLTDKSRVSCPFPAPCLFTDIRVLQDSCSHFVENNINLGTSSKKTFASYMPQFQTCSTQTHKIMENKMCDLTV
Experimental: The direct binding of diLep9R3LC or Lep9R3LC to the target was evaluated using a dual-channel surface plasmon resonance (SPR) instrument (Reichert SR7500DC system, Depew, NY). The process of immobilizing the leptin receptor protein (R&D Systems, Minneapolis, MN) onto the sensor chip surface was accomplished using free amine coupling through an 1-ethyl-3-(3-dimethylaminopropyl) carbodiimide hydrochloride (EDC)/N-hydroxysuccinimide (NHS) reaction. The process of the EDC/NHS reaction involves injecting a mixture containing 0.1 M EDC and 0.05 M NHS. Subsequently, the remaining activated carboxyl groups were quenched with 1 M ethanolamine at pH 6.0. All dilutions of the working peptides were prepared in the running buffer (PBS with 1% DMSO) and injected for 3 min (association time) at a flow rate of 50 μl/min followed by a dissociation phase of 3 min. Nonspecific background binding was subtracted from each sensogram using SPR_V4017 Data Acquisition and Alignment Program (Reichert, Depew, NY). Binding rates and constants were independent of flow rate over a wide range. Best-fit kinetic parameters were obtained by global fitting analysis using Scrubber2 (Biologic Software, Australia).

[2] = tested on: N2a cells
[3] = tested on: N2a cells; test: Cytotoxicity, Cell Counting Kit-8 assay; conditions: 24 h posttransfection, Cell Counting Kit-8, at tested weight ratio, with siSOD1 (Fig. 1G)
[4] = tested on: SOD1; test: SOD1 gene silencing in mouse organs and brain regions, qPCR; type: in vivo, mice; conditions: 400 pmol siSOD1, 100 μg peptide, tail vein, daily for 3 d, n = 8
Experimental: All procedures were performed in compliance with guidelines and protocols approved by the Institutional Animal Care and Use Committee (IACUC) of Hanyang University. The Balb/c mice were used to test the in vivo delivery of complexed particles to the brain. To ascertain ligand-receptor-mediated delivery of diLep9R3LC:siRNA, the leptin-receptor-deficient (db/db, Jackson Laboratory, ME) strains were utilized. Further, to study therapeutic efficacy of siRNA in AD, 7-month-old male 3xTg (B6;129-Psen1tm1Mpm Tg (APPSwe,tauP301L)1Lfa/Mmjax) mice (Jackson Laboratory, ME) were used. These mice show AD-like pathological and physiological characteristics with respect to formation of Aβ plaques and tangled tau as well as abnormal behaviors. […] In all experiments, a group of control mice (n = 4) were also injected with DPBS (pH 7.4).
For quantitative polymerase chain reaction (qPCR), total RNA was extracted from N2a cells 24 h posttransfection and homogenized brain samples using the RNAiso kit (Takara, Kyoto, Japan). The RNA was quantified with SYBR premix Ex Taq perfect real time (Takara, Kyoto, Japan) with qPCR primers. In all cases, relative gene expression was calculated in comparison to normalized target mRNA levels in nontreated groups. […] All primers were synthesized from Cosmogenetech (Seoul, Korea), and sequences are depicted below.

[5] = target: T2, leptin receptor (Mus musculus, UniProt P48356); test: SPR
T2 chain: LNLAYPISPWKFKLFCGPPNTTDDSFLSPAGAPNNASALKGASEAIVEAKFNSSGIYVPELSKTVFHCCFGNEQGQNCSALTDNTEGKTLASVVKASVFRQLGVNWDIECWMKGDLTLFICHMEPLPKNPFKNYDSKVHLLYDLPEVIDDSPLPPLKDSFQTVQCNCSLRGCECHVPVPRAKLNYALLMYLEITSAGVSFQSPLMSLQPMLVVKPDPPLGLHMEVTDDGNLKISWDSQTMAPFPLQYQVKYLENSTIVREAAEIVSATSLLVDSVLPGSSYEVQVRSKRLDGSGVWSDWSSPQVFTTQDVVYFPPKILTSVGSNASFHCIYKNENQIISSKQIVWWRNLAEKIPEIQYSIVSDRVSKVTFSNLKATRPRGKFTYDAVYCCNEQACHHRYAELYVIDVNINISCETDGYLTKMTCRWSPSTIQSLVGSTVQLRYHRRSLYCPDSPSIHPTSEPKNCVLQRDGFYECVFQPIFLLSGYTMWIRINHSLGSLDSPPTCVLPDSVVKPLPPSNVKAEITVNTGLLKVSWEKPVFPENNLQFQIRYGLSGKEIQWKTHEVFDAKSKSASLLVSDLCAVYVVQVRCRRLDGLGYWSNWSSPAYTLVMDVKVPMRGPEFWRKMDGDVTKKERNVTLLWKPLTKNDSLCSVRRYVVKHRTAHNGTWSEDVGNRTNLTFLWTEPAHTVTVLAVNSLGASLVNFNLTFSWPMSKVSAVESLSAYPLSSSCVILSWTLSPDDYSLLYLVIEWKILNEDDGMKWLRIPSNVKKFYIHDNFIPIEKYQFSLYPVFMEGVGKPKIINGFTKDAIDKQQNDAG

Molecule: I: YQQVLTSLPSQNVLQIANDLENLRDLLHLLGGGGRRRRRRRRRLLLC / II: YQQVLTSLPSQNVLQIANDLENLRDLLHLLGGGGRRRRRRRRRLLLC (disulfide I:47-II:47) [diLep9R3LC]
kon [1]: 3300 M⁻¹ s⁻¹
cytotoxicity [3]: did not show any cytotoxicity

Molecule: EVGQSDYSSYARTSIRASLTFGGGGRRRRRRRRRLLLC [scrambled9R, scrambled peptide, nontargeting control]
SOD1 silencing, brain [4]: not when used with scrambled peptide

The next lines start with results.

kon ([1]; SPR Reichert SR7500DC, amine-coupled receptor, running buffer PBS with 1% DMSO, 3 min association, 3 min dissociation, 50 μl/min, global fit Scrubber2): 1100 M⁻¹ s⁻¹
Kd ([1]; SPR, leptin receptor immobilized, PBS with 1% DMSO, global fit, read-out: binding affinity (KD) (Kd/Ka)): 1380 nM
Molecule: YQQVLTSLPSQNVLQIANDLENLRDLLHLLGGGGRRRRRRRRRLLLC [Lep9R3LC]
cytotoxicity [2]: did not show any cytotoxicity

Kd [5]: 1380 nM
Molecule: YQQVLTSLPSQNVLQIANDLENLRDLLHLLGGGGRRRRRRRRRLLLC [Lep9R3LC]

Kd [5]: 462 nM
Molecule: YQQVLTSLPSQNVLQIANDLENLRDLLHLLGGGGRRRRRRRRRLLLC (also: disulfide-linked dimer via C-terminal Cys) [diLep9R3LC]
